# Reference: publication PMC10177727 (Clinical Drug Investigation, 2023)
# Read-outs that look alike come from different tables or passages of the source.
# Experiments:
# CYP3A [1] = assay: clinical; settings: human, in vivo, po, 10 mg; for half-life: t1/2,z GLS mean
# CYP3A [2] = settings: with itraconazole, prednisolone 20 mg administered on Day 5; cited from earlier work
# CYP3A [3] = system: CYP3A
# CYP3A [4] = settings: with ensitrelvir 750/250 mg; cited from earlier work
# CYP3A [5] = settings: midazolam with ensitrelvir 375/125 mg / midazolam alone, Day 5/Day -2
# CYP3A [6] = assay: clinical; settings: human, in vivo, po, 2 mg, midazolam 2 mg alone, Day -2
# [7] = Safety and tolerability: treatment-emergent adverse events; type: in vivo, healthy Japanese adult participants; settings: midazolam cohort (ensitrelvir 375/125 mg + midazolam 2 mg), N = 14
# [8] = 5th day after the last ensitrelvir dose / prednisolone alone, Day 9/Day -2
# [9] = 10th day after the last ensitrelvir dose / prednisolone alone, Day 14/Day -2
# [10] = prednisolone with ensitrelvir 750/250 mg / prednisolone alone, Day 5/Day -2
smiles,measurement,setting,value
C[C@]12C=CC(=O)C=C1CC[C@@H]1[C@@H]2[C@@H](O)C[C@@]2(C)[C@H]1CC[C@]2(O)C(=O)CO [Prednisolone],AUC(0-inf),"CYP3A [1]; AUC0–inf GLS mean, prednisolone 10 mg alone, Day -2",1090 ng·h/mL
same,AUC(0-t),"CYP3A [1]; AUC0–last GLS mean, prednisolone 10 mg alone, Day -2",1040 ng·h/mL
same,Cmax,"CYP3A [1]; Cmax GLS mean, prednisolone 10 mg alone, Day -2",243 ng/mL
same,MRT,"CYP3A [1]; MRT GLS mean, prednisolone 10 mg alone, Day -2",4.26 h
same,half-life,"CYP3A [1]; prednisolone 10 mg alone, Day -2",2.55 h
same,half-life,"CYP3A [1]; prednisolone 10 mg, 5th day after the last ensitrelvir dose, Day 9",2.71 h
same,half-life,"CYP3A [1]; prednisolone 10 mg, 10th day after the last ensitrelvir dose, Day 14",2.67 h
same,k el,"CYP3A [1]; λz GLS mean, prednisolone 10 mg alone, Day -2",7.56e-05 s⁻¹
same,AUC of prednisolone increase,CYP3A [2],1.24 fold
same,AUC0–inf GLS mean ratio (90% CI),CYP3A [3]; [8],1.1243 (1.0973–1.1521)
same,AUC0–last GLS mean ratio (90% CI),CYP3A [3]; [8],1.1142 (1.0842–1.1451)
same,Cmax GLS mean ratio (90% CI),CYP3A [3]; [8],1.0953 (0.9865–1.2160)
same,MRT GLS mean ratio (90% CI),CYP3A [3]; [8],1.0569 (1.0095–1.1065)
same,"t1/2,z GLS mean ratio (90% CI)",CYP3A [3]; [8],1.0660 (1.0349–1.0980)
same,λz GLS mean ratio (90% CI),CYP3A [3]; [8],0.9381 (0.9107–0.9663)
same,AUC0–inf GLS mean ratio (90% CI),CYP3A [3]; [9],1.0396 (1.0146–1.0653)
same,AUC0–last GLS mean ratio (90% CI),CYP3A [3]; [9],1.0267 (0.9990–1.0552)
same,Cmax GLS mean ratio (90% CI),CYP3A [3]; [9],0.9927 (0.8941–1.1021)
same,MRT GLS mean ratio (90% CI),CYP3A [3]; [9],1.0419 (0.9952–1.0908)
same,"t1/2,z GLS mean ratio (90% CI)",CYP3A [3]; [9],1.0474 (1.0169–1.0789)
same,λz GLS mean ratio (90% CI),CYP3A [3]; [9],0.9547 (0.9269–0.9834)
same,AUC0–inf GLS mean ratio (90% CI),CYP3A [3]; [10],1.2476 (1.2176–1.2784)
same,AUC0–last GLS mean ratio (90% CI),CYP3A [3]; [10],1.2408 (1.2073–1.2752)
same,Cmax GLS mean ratio (90% CI),CYP3A [3]; [10],1.1141 (1.0035–1.2369)
same,MRT GLS mean ratio (90% CI),CYP3A [3]; [10],1.1065 (1.0569–1.1584)
same,"t1/2,z GLS mean ratio (90% CI)",CYP3A [3]; [10],1.1160 (1.0835–1.1496)
same,λz GLS mean ratio (90% CI),CYP3A [3]; [10],0.8960 (0.8699–0.9230)
Cc1ncc2n1-c1ccc(Cl)cc1C(c1ccccc1F)=NC2 [Midazolam],increase in the plasma exposure of midazolam,CYP3A [4],8.80 fold
same,increased ratio of Cmax of midazolam,CYP3A [4],2.78 fold
same,AUC0–inf GLS mean ratio (90% CI),CYP3A [5],6.7685 (6.1572–7.4404)
same,AUC0–last GLS mean ratio (90% CI),CYP3A [5],6.9011 (6.2722–7.5931)
same,Cmax GLS mean ratio (90% CI),CYP3A [5],2.8012 (2.3798–3.2971)
same,MRT GLS mean ratio (90% CI),CYP3A [5],2.6506 (2.4623–2.8532)
same,"t1/2,z GLS mean ratio (90% CI)",CYP3A [5],2.2750 (2.0373–2.5406)
same,λz GLS mean ratio (90% CI),CYP3A [5],0.4396 (0.3936–0.4909)
same,AUC(0-inf),CYP3A [6]; AUC0–inf GLS mean,24.1 ng·h/mL
same,AUC(0-t),CYP3A [6]; AUC0–last GLS mean,23.4 ng·h/mL
same,Cmax,CYP3A [6]; Cmax GLS mean,12.6 ng/mL
same,MRT,CYP3A [6]; MRT GLS mean,3.18 h
same,half-life,"CYP3A [6]; t1/2,z GLS mean",3.24 h
same,k el,CYP3A [6]; λz GLS mean,5.94e-05 s⁻¹
same,"Diarrhea, events related to midazolam",[7],1
same,"Somnolence, events related to midazolam",[7],8
